Results taken from PubChem BioAssay (NCI).
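In this assay, cells in 96-well plates receive the compound at five concentrations for 48 hours. Endpoints are linearly interpolated between the surrounding concentrations. GI50 marks 50% less growth. TGI denotes the concentration required for complete inhibition of growth.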

How the values were obtained:
Assay in all cases: NCI tumour cell line growth inhibition, 48 h
SN12C renal = system: SN12C renal
TK-10 renal = system: TK-10 renal
RPMI-8226 leukemia = system: RPMI-8226 leukemia
HS 578T breast = system: HS 578T breast
HT29 colon = system: HT29 colon
A498 renal = system: A498 renal
PC-3 prostate = system: PC-3 prostate
RXF 393 renal = system: RXF 393 renal
MDA-MB-231 breast = system: MDA-MB-231 breast
IGROV1 ovarian = system: IGROV1 ovarian

SMILES | GI50 (SN12C renal) | TGI (SN12C renal) | GI50 (TK-10 renal) | TGI (TK-10 renal) | GI50 (RPMI-8226 leukemia) | TGI (RPMI-8226 leukemia) | GI50 (HS 578T breast) | TGI (HS 578T breast) | GI50 (HT29 colon) | TGI (HT29 colon) | GI50 (A498 renal) | TGI (A498 renal) | GI50 (PC-3 prostate) | TGI (PC-3 prostate) | GI50 (RXF 393 renal) | TGI (RXF 393 renal) | GI50 (MDA-MB-231 breast) | TGI (MDA-MB-231 breast) | GI50 (IGROV1 ovarian) | TGI (IGROV1 ovarian)
CCOC(=O)c1cc2c(cc1Cl)SC(=Nc1ccccc1)N(S(=O)(=O)c1ccc(Br)s1)S2(=O)=O | 17.3 µM | 33.9 µM | 15.9 µM | 30.4 µM | 12.1 µM | 41.9 µM | 18.7 µM | 49.4 µM | 31.2 µM | > 100 µM | 16.2 µM | 34 µM | 14.5 µM | 32.1 µM | 2.1 µM | 11.5 µM | 14.1 µM | 30.6 µM | 17.7 µM | 53.4 µM
Nc1nc(N)c(CCCCc2ccccc2)c(N)n1 |  | > 100 µM |  | > 100 µM |  | > 100 µM |  | > 100 µM |  | > 100 µM |  | > 100 µM |  | > 100 µM |  | > 100 µM |  | > 100 µM |  | > 100 µM
N/C(=N\OC(=O)c1ccccc1)C(Cc1ccccc1)C(=O)NOC(=O)c1ccccc1 (stereo unspecified) | 3.39 µM | 25.4 µM | 2.12 µM | 3.76 µM | 1.74 µM | 4.95 µM | 0.952 µM | 3.27 µM | 5.24 µM | 18.5 µM | 11 µM | 23.2 µM | 2.62 µM | 7.2 µM | 1.97 µM | 5.6 µM | 4.6 µM | 18.1 µM | 0.43 µM | 2.09 µM
COc1cc2c(cc1F)C(c1ccccc1Cl)=Nc1c(n[nH]c1C)N2 | 1.38 µM | 18.3 µM | 4.02 µM | 18.3 µM |  |  | 0.214 µM | 0.838 µM | 0.587 µM | 8.83 µM | 2.06 µM | 9.97 µM | 12.3 µM | > 50.1 µM | 0.242 µM | 1.46 µM | 2.12 µM | 16.9 µM | 1.54 µM | 18 µM
O=C1C(OCCOc2ccccc2)=C(OCCOc2ccccc2)C(=O)c2ccccc21 | 4.38 µM | 52 µM | > 100 µM | > 100 µM | > 100 µM | > 100 µM | 8.96 µM | > 100 µM | 9.95 µM | > 100 µM | 18.2 µM | > 100 µM | 17.2 µM | > 100 µM | 40.2 µM | > 100 µM | > 100 µM | > 100 µM | > 100 µM | > 100 µM
Fc1ccc(/C=N/n2c(-c3ccc(F)c(Cl)c3)n[nH]c2=S)cc1 |  |  | 24.1 µM | 51 µM | 19.8 µM | 43.2 µM | 28.8 µM | 97.3 µM | 35.3 µM | > 100 µM | 13.8 µM | 31 µM | 27.3 µM | > 100 µM | 21.2 µM | 39.9 µM | 20.2 µM | 38.9 µM | 20.6 µM | 48.8 µM
O=Nc1c(-c2c(O)[nH]c3ncccc23)[nH]c2ccccc12 | 5.86 µM | > 100 µM | 5.52 µM | > 100 µM |  | > 79 µM | 2.71 µM | > 100 µM | > 94.2 µM | > 100 µM | 1.93 µM | > 100 µM | > 26.1 µM | > 100 µM | > 100 µM | > 100 µM | 16 µM | > 100 µM | 1.72 µM | > 100 µM
Cc1[nH]c(-c2cc(N)ccc2Cl)c2c1C(=O)CCCC2 | 5.01 µM | > 100 µM | 2.19 µM | 31 µM | 3.63 µM | 44.2 µM | 2.11 µM | 17.8 µM | 2.7 µM | > 100 µM | 3.22 µM | 9.84 µM | 3.5 µM | > 100 µM | 2.06 µM | 6.06 µM | 3.82 µM | > 100 µM | 2.58 µM | 29.1 µM
O=C(Nc1ccccc1OC(=O)c1ccccc1)c1ccccc1 | 28.1 µM | > 100 µM | 31.5 µM | > 100 µM | 38.6 µM | > 100 µM | 4.72 µM | > 100 µM | 3.76 µM | 41.4 µM | 12.7 µM | 60.1 µM | 6.11 µM | > 100 µM | 50.9 µM | > 100 µM | 6.44 µM | > 100 µM | 2.91 µM | 17.1 µM
COC(=O)c1cc(-c2ccc(OC)c(OC)c2)[nH]c1N/N=C/c1c(Cl)cccc1Cl | 0.969 µM | 18.8 µM | 1.64 µM | 9.47 µM | 0.531 µM | > 100 µM | 0.523 µM | 11 µM | 0.434 µM | 2.3 µM | 0.532 µM | 3.8 µM | 0.538 µM |  | 0.132 µM | 0.933 µM | 1.31 µM | 5.03 µM |  | 
Fc1cccc(F)c1C(Nc1nncs1)Nc1nncs1 |  | > 100 µM |  | > 100 µM |  | > 100 µM |  | > 100 µM |  | > 100 µM |  | > 100 µM |  | > 100 µM |  | > 100 µM |  | > 100 µM |  | > 100 µM
CCC(=O)Nc1ccc(N2C(=O)/C(=C/c3ccc(OC)cc3)N=C2c2ccccc2)cc1 | 5.46 µM | 15.3 µM | 22.8 µM | > 50 µM | 4.67 µM | > 50 µM | 14.1 µM | > 50 µM | 5.91 µM | > 50 µM | 10.4 µM | > 50 µM | 13.5 µM | > 50 µM | 11.3 µM | > 50 µM | 4.31 µM | 14.5 µM | 14.1 µM | > 50 µM
Oc1cc(-n2cccn2)c(O)cc1-n1cccn1 |  | 37.8 µM |  | 49.6 µM |  | 72.1 µM |  | > 100 µM |  | 56.2 µM |  | > 92.2 µM |  | 44.8 µM |  | 37.8 µM |  | 50.5 µM |  | > 75.9 µM
CC(CO)(Nc1ccc([N+](=O)[O-])cc1[N+](=O)[O-])C(=O)O (stereo unspecified) |  | 39.4 µM |  | > 100 µM |  | > 100 µM |  | 46.3 µM |  | 30.4 µM |  |  |  | > 100 µM |  | 24.6 µM |  | > 100 µM |  | 53.7 µM
